ChEMBL document CHEMBL4420066, “Aryl amine substituted quinoxaline used as anticancer drugs” (2017)
Calls of active or inactive are those of the source. No cut-off for these calls is given here.

Key:
[1] = organism: Homo sapiens; assay: Activation of PP2A in human Hep3B cells assessed as minimal concentration causing increase in protein phosphatase activity incubated for 24 hrs using phosphopeptide substrate incubated for 10 mins by malachite green-phosphate complex assay; format: cell-based
[2] = organism: Homo sapiens; assay: Activation of PP2A in human HA22T cells assessed as minimal concentration causing increase in protein phosphatase activity incubated for 24 hrs using phosphopeptide substrate incubated for 10 mins by malachite green-phosphate complex assay; format: cell-based
[3] = organism: Homo sapiens; assay: Inhibition of His-tagged recombinant human SET1 protein (1 to 290 amino acids) expressed in Escherichia coli interaction with N-terminal GST-tagged recombinant human PP2A-C (1 to 309 amino acids) assessed as minimal concentration causing disruption of SET-PP2Ac binding by SPR assay
[4] = organism: Homo sapiens; assay: Activation of PP2A in human SKHEP1 cells assessed as minimal concentration causing increase in protein phosphatase activity incubated for 24 hrs using phosphopeptide substrate incubated for 10 mins by malachite green-phosphate complex assay; format: cell-based
[5] = organism: Homo sapiens; assay: Activation of PP2A in human PLC5 cells assessed as minimal concentration causing increase in protein phosphatase activity incubated for 24 hrs using phosphopeptide substrate incubated for 10 mins by malachite green-phosphate complex assay; format: cell-based
[6] = system: Homo sapiens; assay: Antitumor activity against human PLC5 cells xenografted in mouse assessed as reduction in tumor size at 10 mg/kg dosed for 4 weeks; format: functional, organism-based
[7] = organism: Homo sapiens; assay: Cytotoxicity against human PLC5 cells assessed as reduction in cell viability at 0.5 to 4 uM incubated for 48 hrs by MTT assay; format: functional, cell-based
[8] = system: Hep 3B2; assay: Cytotoxicity against human Hep3B cells assessed as reduction in cell viability incubated for 48 hrs by MTT assay; format: functional, cell-based
[9] = system: HA22T cell line; assay: Induction of apoptosis in human HA22T cells assessed as accumulation at subG1 phase at 0.5 to 4 uM by flow cytometry; format: functional, cell-based
[10] = organism: Homo sapiens; assay: Induction of apoptosis in human PLC5 cells assessed as accumulation at subG1 phase at 0.5 to 4 uM by flow cytometry; format: functional, cell-based
[11] = system: SK-HEP1; assay: Cytotoxicity against human SKHEP1 cells assessed as reduction in cell viability incubated for 48 hrs by MTT assay; format: functional, cell-based
[12] = system: SK-HEP1; assay: Induction of apoptosis in human SKHEP1 cells assessed as accumulation at subG1 phase at 0.5 to 4 uM by flow cytometry; format: functional, cell-based
[13] = system: Hep 3B2; assay: Induction of apoptosis in human Hep3B cells assessed as accumulation at subG1 phase at 0.5 to 4 uM by flow cytometry; format: functional, cell-based
[14] = system: HA22T cell line; assay: Cytotoxicity against human HA22T cells assessed as reduction in cell viability incubated for 48 hrs by MTT assay; format: functional, cell-based
[15] = organism: Homo sapiens; assay: Cytotoxicity against human PLC5 cells assessed as reduction in cell viability incubated for 48 hrs by MTT assay; format: functional, cell-based

MEC [3] [nM] | Structure (SMILES) | MEC [1] [nM] | MEC [2] [nM] | MEC [4] [nM] | MEC [5] [nM] | further results
> 200 | Clc1nc2ccccc2nc1Nc1ccccc1 | > 200 | > 200 | > 200 | > 200 | –
> 200 | Clc1cccc(Nc2nc3ccccc3nc2Cl)c1 | > 200 | > 200 | > 200 | > 200 | –
< 100 | FC(F)(F)Oc1ccc(Nc2nc3ccccc3nc2Nc2ccc(OC(F)(F)F)cc2)cc1 | 50 to 100 | 50 to 100 | 50 to 100 | 50 to 100 | –
50 to 100 | C#Cc1cccc(Nc2nc3ccc([N+](=O)[O-])cc3nc2Nc2cccc(C#C)c2)c1 | < 50 | < 50 | < 50 | < 50 | –
50 | FS(F)(F)(F)(F)c1ccc(Nc2nc3ccccc3nc2Nc2ccc(S(F)(F)(F)(F)F)cc2)cc1 | < 50 | < 50 | < 50 | < 50 | –
> 200 | O=[N+]([O-])c1ccc2nc(Nc3cccc(C(F)(F)F)c3)c(Nc3cccc(C(F)(F)F)c3)nc2c1 | > 200 | > 200 | > 200 | > 200 | –
– | CNC(=O)c1cc(Oc2ccc(NC(=O)Nc3ccc(Cl)c(C(F)(F)F)c3)cc2)ccn1 | – | – | – | – | Activity [6]: Active; Activity [7]: Active
< 100 | Oc1ccc(Nc2nc3ccccc3nc2Nc2ccc(O)cc2)cc1 | 100 to 200 | 100 to 200 | 100 to 200 | 100 to 200 | –
> 200 | O=[N+]([O-])c1cccc(Nc2nc3ccccc3nc2Cl)c1 | > 200 | > 200 | > 200 | > 200 | –
> 200 | O=[N+]([O-])c1ccc2nc(Nc3cccc(Br)c3)c(Nc3cccc(Br)c3)nc2c1 | > 200 | > 200 | > 200 | > 200 | –
100 to 200 | C#Cc1cccc(Nc2nc3cc([N+](=O)[O-])ccc3nc2Nc2ccc(OC)cc2)c1 | 100 to 200 | 100 to 200 | 100 to 200 | 100 to 200 | –
> 200 | FC(F)(F)c1cc(Nc2nc3ccccc3nc2Cl)cc(C(F)(F)F)c1 | > 200 | > 200 | > 200 | > 200 | –
< 100 | FC(F)(F)c1cc(Nc2nc3ccccc3nc2Nc2ccc(Cl)c(C(F)(F)F)c2)ccc1Cl | 100 to 200 | 100 to 200 | 100 to 200 | 100 to 200 | –
> 200 | FS(F)(F)(F)(F)c1ccc(Nc2nc3ccccc3nc2Cl)cc1 | > 200 | > 200 | > 200 | > 200 | –
– | COc1ccc(Nc2nc3ccc([N+](=O)[O-])cc3nc2Nc2cccc(O)c2)cc1 | < 100 | < 100 | < 100 | < 100 | –
– | C#Cc1cccc(Nc2ncnc3cc(OCCOC)c(OCCOC)cc23)c1 | – | – | – | – | Activity [8]: Active; Activity [9]: Active; Activity [10]: Active; Activity [11]: Active; Activity [12]: Active; Activity [13]: Active; Activity [14]: Active; Activity [15]: Active
> 200 | Nc1ccc2nc(Nc3ccc(C(F)(F)F)cc3)c(Nc3ccc(C(F)(F)F)cc3)nc2c1 | > 200 | > 200 | > 200 | > 200 | –
100 to 200 | Clc1cc(Cl)cc(Nc2nc3ccccc3nc2Cl)c1 | > 200 | > 200 | > 200 | > 200 | –
> 200 | COc1cccc(Nc2nc3ccc([N+](=O)[O-])cc3nc2Nc2cccc(OC)c2)c1 | > 200 | > 200 | > 200 | > 200 | –
> 200 | Clc1nc2ccccc2nc1NCc1ccccc1 | > 200 | > 200 | > 200 | > 200 | –
> 200 | FC(F)(F)Oc1ccc(Nc2nc3ccccc3nc2Cl)cc1 | > 200 | > 200 | > 200 | > 200 | –
